# Assay results reported in US20240287037A1, “CYCLOALKYL COMPOUNDS AND PHARMACEUTICAL COMPOSITIONS THAT MODULATE IKZF2” (Plexium, Inc., priority 2021, published 2024).
# Like-named read-outs stand apart in the source and are kept apart here.
# Key:
# IKZF3 (Aiolos) = IKZF3 (Aiolos) (Homo sapiens (Human), UniProt Q96SW2+Q9UKT9); assay: IKZF3 reporter degradation assay (HEK 293T IKZF3-mNeonGreen reporter cell line); format: cell-based; conditions: HEK 293T reporter cells, 24 hour incubation
# Excerpt: (§1) Polycistronic plasmids were constructed for the mammalian expression of fluorescent reporter fusions of human transcription factors IKZF1 (Ikaros), IKZF2 (Helios), and IKZF3 (Aiolos). The respective protein sequences had their C-terminal end joined to a GGGGS linker repeated three times followed by mNeonGreen, P2A sequence, and mScarlet. The DNA sequences of the open reading frames are as follows:
# (§2) IKZF1, IKZF2, and IKZF3 constructs were cloned into the UCOE Hygromycin expression vectors (Millipore Sigma). Reporter constructs were transfected using cationic lipid reagents into adherent HEK 293T cells and stable integrants were selected by treatment with 200 μg/mL hygromycin B. Clonal populations were obtained from the population of stable integrants either by limiting dilution or fluorescence activated cell sorting.
# (§3) The clonal stable cell lines were maintained under constant 200 μg/mL hygromycin B selection while being passaged for use in the degradation assays. […] The fluorescence intensity of the IKZF1/2/3-mNeonGreen (FITC channel) and mScarlet (PE channel) reporters were routinely analyzed by flow cytometry to confirm consistent expression levels between experiments.
# (§4) The IKZF1/IKZF2/IKZF3 degradation assays were carried out by harvesting the HEK 293T reporter cell lines and resuspending the cells in media formulated for reduced background fluorescence (FluoroBrite; Thermo Fisher). The respective cell lines were seeded at a density of 4000 cells/well into black-walled 384-well optical grade assay tissue culture plates. The cells were incubated overnight at 37° C. to allow for attachment to the assay plate. Dilutions of the compounds were prepared in DMSO from 10 mM compound stocks. The assay plates were treated with appropriate concentrations of the compounds by dispensing the DMSO dilutions in quadruplicate wells with an upper limit of 0.5% final DMSO.
# (§5) After 24 hour incubation with the compounds, the assay plates were imaged on an ImageXpress Pico microscopy system (cells maintained at 37° C. during imaging) to obtain the fluorescent readouts. The assay plates were imaged in the FITC and Tetramethylrhodamine (TRITC) channels to obtain the mNeonGreen fluorescence intensity (reporter degradation data) and mScarlet fluorescence intensity (for cell segmentation). 293T-IKZF1 and 293T-IKZF3 reporter cell lines were imaged with exposures of 500 milliseconds (ms) for both FITC and TRITC channels, while the 293T-IKZF2 reporter cell line was imaged with exposures of 1000 ms for FITC and 1250 ms for TRITC. The resulting data was analyzed with Cell Reporter Xpress software using the 2-channel cell scoring analysis with a “percent positive” readout. The TRITC channel was selected for the “nuclei” segmentation with a threshold of 20 while the FITC channel was selected for the “Marker 1” segmentation and a threshold of 100 for the IKZF and IKZF3 reporter lines. […] The minimum segmentation width was set to 6 micrometers and the maximum segmentation width was set to 15 micrometers for all cell lines. The DC50 calculations were determined by regression to best fit four-parameter logistic curves using GraphPad Prism.
# IKZF2 (Helios) = IKZF2 (Helios) (Homo sapiens (Human), UniProt Q96SW2+Q9UKS7); assay: IKZF2 reporter degradation assay (HEK 293T IKZF2-mNeonGreen reporter cell line); format: cell-based; conditions: 24 hour incubation; for inhibition at 1 µM: HEK-293T, 24 h
# IKZF2 (Helios), sequence (Q9UKS7 whole entry): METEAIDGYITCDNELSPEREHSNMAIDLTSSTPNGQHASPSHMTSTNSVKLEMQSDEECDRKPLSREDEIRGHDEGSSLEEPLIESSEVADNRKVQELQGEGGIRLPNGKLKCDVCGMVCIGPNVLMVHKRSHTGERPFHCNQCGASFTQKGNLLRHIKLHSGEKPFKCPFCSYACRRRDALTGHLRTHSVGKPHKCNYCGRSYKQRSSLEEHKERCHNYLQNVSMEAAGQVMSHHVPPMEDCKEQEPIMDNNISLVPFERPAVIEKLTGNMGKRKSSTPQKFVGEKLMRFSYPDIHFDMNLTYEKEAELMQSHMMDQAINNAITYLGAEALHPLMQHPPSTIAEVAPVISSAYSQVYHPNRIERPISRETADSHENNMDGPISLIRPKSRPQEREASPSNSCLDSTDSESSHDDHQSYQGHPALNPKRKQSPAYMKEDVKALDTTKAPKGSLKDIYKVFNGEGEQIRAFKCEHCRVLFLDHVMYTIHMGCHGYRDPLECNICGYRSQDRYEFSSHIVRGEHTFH
# IKZF2 (Helios), sequence (Q96SW2 whole entry): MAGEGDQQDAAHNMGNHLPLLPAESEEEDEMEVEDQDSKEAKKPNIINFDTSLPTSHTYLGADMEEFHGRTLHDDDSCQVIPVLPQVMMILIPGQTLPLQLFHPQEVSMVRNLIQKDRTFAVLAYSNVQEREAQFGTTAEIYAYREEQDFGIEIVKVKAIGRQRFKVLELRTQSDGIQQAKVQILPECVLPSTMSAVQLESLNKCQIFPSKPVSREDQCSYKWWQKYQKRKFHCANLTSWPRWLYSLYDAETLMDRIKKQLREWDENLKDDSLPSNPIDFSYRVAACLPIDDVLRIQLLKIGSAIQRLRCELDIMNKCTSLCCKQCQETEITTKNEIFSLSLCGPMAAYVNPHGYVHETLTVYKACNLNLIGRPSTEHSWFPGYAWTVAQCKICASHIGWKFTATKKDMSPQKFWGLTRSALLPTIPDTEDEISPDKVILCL
# IKZF2 (Helios), sequence (Q16531 whole entry partner): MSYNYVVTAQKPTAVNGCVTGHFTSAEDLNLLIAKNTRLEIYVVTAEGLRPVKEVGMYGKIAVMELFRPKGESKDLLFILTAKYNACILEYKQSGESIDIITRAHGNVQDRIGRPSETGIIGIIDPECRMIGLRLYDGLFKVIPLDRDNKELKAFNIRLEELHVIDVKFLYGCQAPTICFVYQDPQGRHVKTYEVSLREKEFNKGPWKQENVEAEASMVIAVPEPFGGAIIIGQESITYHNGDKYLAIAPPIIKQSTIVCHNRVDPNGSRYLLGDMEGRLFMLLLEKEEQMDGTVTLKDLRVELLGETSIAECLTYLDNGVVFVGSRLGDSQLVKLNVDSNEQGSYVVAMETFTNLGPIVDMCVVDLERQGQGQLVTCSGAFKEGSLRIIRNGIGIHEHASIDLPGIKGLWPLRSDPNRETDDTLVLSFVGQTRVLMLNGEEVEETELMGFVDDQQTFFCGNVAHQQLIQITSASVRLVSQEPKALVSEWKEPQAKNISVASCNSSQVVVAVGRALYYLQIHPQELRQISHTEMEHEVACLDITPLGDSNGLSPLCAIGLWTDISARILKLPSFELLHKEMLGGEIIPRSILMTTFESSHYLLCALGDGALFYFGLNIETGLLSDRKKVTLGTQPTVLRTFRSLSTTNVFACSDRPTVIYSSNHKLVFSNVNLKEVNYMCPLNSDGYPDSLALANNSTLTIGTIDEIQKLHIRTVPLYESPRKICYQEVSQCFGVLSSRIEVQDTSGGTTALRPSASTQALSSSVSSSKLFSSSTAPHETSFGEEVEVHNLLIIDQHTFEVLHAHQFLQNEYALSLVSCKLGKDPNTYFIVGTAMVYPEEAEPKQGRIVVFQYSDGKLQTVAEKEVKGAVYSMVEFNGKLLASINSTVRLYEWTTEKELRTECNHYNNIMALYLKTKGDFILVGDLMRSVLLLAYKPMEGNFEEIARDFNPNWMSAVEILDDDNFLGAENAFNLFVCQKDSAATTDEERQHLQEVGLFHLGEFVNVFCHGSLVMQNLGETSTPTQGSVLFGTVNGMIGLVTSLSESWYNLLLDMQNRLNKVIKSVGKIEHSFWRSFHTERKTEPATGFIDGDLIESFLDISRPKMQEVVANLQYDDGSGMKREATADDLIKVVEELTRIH
# Excerpt: as §1, §2, §3, §4, §5
# [1] = molecular target: human E3 ligase component cereblon (CRBN) (Homo sapiens (Human), UniProt Q96SW2); assay: Cereblon (CRBN) target engagement, NanoBRET TE Intracellular E3 Ligase Assay in transfected HEK-293T cells
# human E3 ligase component cereblon (CRBN), sequence (Q96SW2 whole entry): as the sequence (Q96SW2 whole entry) above
# human E3 ligase component cereblon (CRBN), sequence (Q16531 whole entry partner): as the sequence (Q16531 whole entry partner) above
# Protocol: HEK-293T cells were harvested ca. 75% confluent with trypsin and plated (500,000 cells/well) in a 6-well tissue culture plate in 2 mL of Dulbecco's Modified Eagle Medium (DMEM)^+10% Fetal Bovine Serum (FBS) and incubated overnight at 37° C.
# The NanoLue-CRBN fusion vector (Nluc-CRBN; Promega) contains the coding region of human E3 ligase component cereblon (CRBN) fused to the C-terminus of the NanoLuc luciferase coding region. A mixture of 10 ng Nluc-CRBN and 990 ng DDB1 Expression Vector (Promega) was added to 125 μL Opti-Minimum Essential Medium (Opti-MEM™; Thermo Fisher) along with 2 μL P3000 reagent (Thermo Fisher) in a 1.5 mL epppendorf tube. This solution was added to Lipofectamine 3000 transfection reagent (5 μL; Thermo Fisher) in Opti-MEM (125 μL), mixed well, and incubated for 15 minutes at room temperature. The transfection mixture was added dropwise to cells and incubated overnight at 37° C., 5% CO2. Following transfection, cells were washed once with PBS, and trypsin (250 μL) was added and incubated 30-45 see to dislodge cells. Complete media (2 mL) was added to resuspend cells to form a single cell suspension. Cells were centrifuged at 320×g for 5 min at room temperature, the supernatant was removed, and the cell pellet resuspended in Opti-MEM (3 mL; wash step repeated ×2). After final resuspension in 5 mL Opti-MEM, cells were counted and resuspended at 200,000 cells/mL in Opti-MEM.
# Cereblon target engagement was monitored by Bioluminescence Resonance Energy Transfer (BRET) in transfected HEK-293T cells using the NanoBRET TE Intracellular E3 Ligase Assay (Promega). Briefly, 384-well plates (white opaque plates, Corning 3574, low binding surface) were seeded with transfected HEK-293T cells (38 μl/well). 2 μL of 10 μM CRBN tracer (diluted 1:5 in Tracer Dilution Buffer) was added to each well. Plates were centrifuged at 320×g for 1 min at room temperature. […] Plates were shaken for 2 minutes on a microplate shaker to mix compounds. Plates were centrifuged at 320×g for 1 min at room temperature, and subsequently incubated for 2 hours at 37° C.
# After incubation, plates were allowed to cool to room temperature for 15 minutes. 20 μL of 3X Complete NanoBRET™ Nano-Glo® Substrate plus Inhibitor Solution (Promega, 1:166 Substrate and 1:500 dilution of Extracellular NanoLuc® Inhibitor diluted in Opti-MEM) were added to each well, Plates were incubated with shaking at room temperature for 3 minutes covered with foil. Plates were read on a CLARIOstar microplate reader (BMG LabTech), measuring at 450 nm (donor emission) and 610 nm (acceptor emission). The IC50 values were determined by regression to best fit four-parameter logistic curves using GraphPad Prism.
# [2] = Table 3, HEK 293T reporter cells
# [3] = second (untitled) table after Table 3
# [4] = Table 3, 2 hours at 37° C., read-out: CRBN Binding EC50
# [5] = second (untitled) table after Table 3, read-out: CRBN Binding EC50
# IKZF3 (Aiolos), sequence (Q9UKT9 whole entry, the tested form may be a part): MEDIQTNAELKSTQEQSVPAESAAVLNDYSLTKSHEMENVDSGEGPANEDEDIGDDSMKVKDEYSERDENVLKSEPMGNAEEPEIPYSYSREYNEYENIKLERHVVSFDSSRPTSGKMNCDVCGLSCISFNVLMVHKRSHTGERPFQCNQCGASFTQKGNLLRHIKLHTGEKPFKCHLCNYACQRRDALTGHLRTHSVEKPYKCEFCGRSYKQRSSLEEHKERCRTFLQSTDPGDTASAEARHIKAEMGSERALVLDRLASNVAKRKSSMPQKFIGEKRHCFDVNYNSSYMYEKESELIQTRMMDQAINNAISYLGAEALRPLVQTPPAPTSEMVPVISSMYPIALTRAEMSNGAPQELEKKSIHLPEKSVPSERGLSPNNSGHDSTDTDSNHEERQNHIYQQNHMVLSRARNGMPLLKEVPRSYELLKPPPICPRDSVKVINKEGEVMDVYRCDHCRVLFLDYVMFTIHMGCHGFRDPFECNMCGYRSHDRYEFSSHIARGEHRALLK
# IKZF3 (Aiolos), sequence (Q96SW2 whole entry, the tested form may be a part): as the sequence (Q96SW2 whole entry) above
# IKZF3 (Aiolos), sequence (Q16531 whole entry partner, the tested form may be a part): as the sequence (Q16531 whole entry partner) above
Compound,DC50 (IKZF3 (Aiolos)) [nM],DC50 (IKZF2 (Helios); HEK 293T reporter cells) [nM],inhibition at 1 µM (IKZF2 (Helios); [2]) [%],inhibition at 1 µM (IKZF2 (Helios); [3]) [%],"EC50 [1, 4] [nM]","EC50 [1, 5] [nM]"
"O=C1CCC(N2Cc3cc(O[C@H]4CCCC[C@@H]4N4CC(C5CC5)C4)c(F)cc3C2=O)C(=O)N1 (stereo partly drawn) [Compound 26, 3-(5-(((1S,2S)-2-(3-cyclopropylazetidin-1-yl)cyclohexyl)oxy)-6-fluoro-1-oxoisoindolin-2-yl)piperidine-2,6-dione]",> 30000,25,77.8,77.8,16,16
"O=C1CCC(N2Cc3cc(O[C@H]4CCCC[C@@H]4N4CC(C5CCC5)C4)c(F)cc3C2=O)C(=O)N1 (stereo partly drawn) [Compound 27, 3-(5-(((1S,2S)-2-(3-cyclobutylazetidin-1-yl)cyclohexyl)oxy)-6-fluoro-1-oxoisoindolin-2-yl)piperidine-2,6-dione]",> 30000,20,84.1,84.1,18,18

# Further lines, results first:
DC50 (IKZF3 (Aiolos)) [nM],DC50 (IKZF2 (Helios); HEK 293T reporter cells) [nM],inhibition at 1 µM (IKZF2 (Helios); [2]) [%],inhibition at 1 µM (IKZF2 (Helios); [3]) [%],"EC50 [1, 4] [nM]","EC50 [1, 5] [nM]",Compound
> 30000,9,82.6,82.6,22,22,"O=C1CCC(N2Cc3cc(O[C@H]4CCC[C@@H]4N4CC(C5CC5)C4)ccc3C2=O)C(=O)N1 (stereo partly drawn) [Compound 22, 3-(5-(((1S,2S)-2-(3-cyclopropylazetidin-1-yl)cyclopentyl)oxy)-1-oxoisoindolin-2-yl)piperidine-2,6-dione]"
> 30000,18,85.8,85.8,49,49,"O=C1CCC(N2Cc3c(ccc(O[C@H]4CCCC[C@@H]4N4CC(C5CC5)C4)c3F)C2=O)C(=O)N1 (stereo partly drawn) [Compound 24, 3-(5-(((1S,2S)-2-(3-cyclopropylazetidin-1-yl)cyclohexyl)oxy)-4-fluoro-1-oxoisoindolin-2-yl)piperidine-2,6-dione]"
> 30000,10,86.7,86.7,28,28,"O=C1CCC(N2Cc3c(ccc(O[C@H]4CCCC[C@@H]4N4CC(C5CCC5)C4)c3F)C2=O)C(=O)N1 (stereo partly drawn) [Compound 25, 3-(5-(((1S,2S)-2-(3-cyclobutylazetidin-1-yl)cyclohexyl)oxy)-4-fluoro-1-oxoisoindolin-2-yl)piperidine-2,6-dione]"
